# Reference: PubChem BioAssay AID1963860 (Molecular Pharmacology Branch, DTP, NCI, 2024)
# System: CN0375-F725-PDC KRAS spheroid viability
# Experiment: Anticancer human tumor CN0375-F725-PDC patient-derived colon carcinoma cell line growth inhibition [KRAS2]
# Conditions: spheroids with HUVEC and MSC; for IC50: curve of first compound; for viability, T/C: stronger effect = lower value
# Procedure, shortened: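 Combination screen of spheroid viability in tumor-cell co-cultures with endothelial (HUVEC) and mesenchymal stem cell stroma. Each agent was tested in half-log dilutions, topping at clinical Cmax or at 10 microM without a known Cmax.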
# [1] = second compound 0.1 µM, first compound 0.00316 µM
# [2] = second compound 0.1 µM, first compound 0.01 µM
# [3] = second compound 0.1 µM, first compound 0.0316 µM
# [4] = second compound 0.1 µM, first compound 0.1 µM
# [5] = second compound 0.316 µM, first compound 0.00316 µM
# [6] = second compound 0.316 µM, first compound 0.01 µM
# [7] = second compound 0.316 µM, first compound 0.0316 µM
# [8] = second compound 0.316 µM, first compound 0.1 µM
# [9] = second compound 1 µM, first compound 0.00316 µM
# [10] = second compound 1 µM, first compound 0.01 µM
# [11] = second compound 1 µM, first compound 0.0316 µM
# [12] = second compound 1 µM, first compound 0.1 µM
# [13] = second compound 3.16 µM, first compound 0.00316 µM
# [14] = second compound 3.16 µM, first compound 0.01 µM
# [15] = second compound 3.16 µM, first compound 0.0316 µM
# [16] = second compound 3.16 µM, first compound 0.1 µM
# 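Also: spheroids exposed to agents for 7 days.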
SMILES,IC50 (second compound 0.1 µM),IC50 (second compound 0.316 µM),IC50 (second compound 1 µM),IC50 (second compound 3.16 µM),"viability, T/C [1]","viability, T/C [2]","viability, T/C [3]","viability, T/C [4]","viability, T/C [5]","viability, T/C [6]","viability, T/C [7]","viability, T/C [8]","viability, T/C [9]","viability, T/C [10]","viability, T/C [11]","viability, T/C [12]","viability, T/C [13]","viability, T/C [14]","viability, T/C [15]","viability, T/C [16]",other results
CCN1CCN(Cc2ccc(Nc3ncc(F)c(-c4cc(F)c5nc(C)n(C(C)C)c5c4)n3)nc2)CC1 + C=CC(=O)N1CCN(c2nc(OCC3CCCN3C)nc3c2CCN(c2cccc4cccc(C)c24)C3)CC1CC#N,> 1000 nM,> 1000 nM,> 1000 nM,< 3.16 nM,103%,96.8%,88.1%,94.6%,104%,99.7%,85.5%,89.4%,95.4%,99.6%,86.9%,83.9%,34.7%,31.3%,17.9%,15.3%,"IC50 (second compound 0.0316 µM): > 1000 nM; viability, T/C (second compound 0.0316 µM, first compound 0.00316 µM): 110%; viability, T/C (second compound 0.0316 µM, first compound 0.01 µM): 94.4%; viability, T/C (second compound 0.0316 µM, first compound 0.0316 µM): 90.5%; viability, T/C (second compound 0.0316 µM, first compound 0.1 µM): 91.8%; viability, T/C (second compound 0.0316 µM, first compound 0.316 µM): 111%; viability, T/C (second compound 0.0316 µM, first compound 1 µM): 99.8%; viability, T/C (second compound 0.1 µM, first compound 0.316 µM): 104%; viability, T/C (second compound 0.1 µM, first compound 1 µM): 91.2%; viability, T/C (second compound 0.316 µM, first compound 0.316 µM): 95.2%; viability, T/C (second compound 0.316 µM, first compound 1 µM): 91.5%; viability, T/C (second compound 1 µM, first compound 0.316 µM): 85.1%; viability, T/C (second compound 1 µM, first compound 1 µM): 89.8%; viability, T/C (second compound 3.16 µM, first compound 0.316 µM): 20.3%; viability, T/C (second compound 3.16 µM, first compound 1 µM): 1.83%"
CN(C)C/C=C/C(=O)Nc1cc2c(Nc3ccc(F)c(Cl)c3)ncnc2cc1O[C@H]1CCOC1 + C=CC(=O)N1CCN(c2nc(=O)n(-c3c(C)ccnc3C(C)C)c3nc(-c4c(O)cccc4F)c(F)cc23)C(C)C1,> 100 nM,> 100 nM,> 100 nM,> 100 nM,86.3%,83.5%,81.4%,76%,84.2%,81.4%,74.9%,74.9%,84.7%,87%,82.9%,81%,89.9%,82.4%,81.2%,75.5%,"IC50 (second compound 10 µM): > 100 nM; viability, T/C (second compound 0.1 µM, first compound 0.000316 µM): 103%; viability, T/C (second compound 0.1 µM, first compound 0.001 µM): 93.5%; viability, T/C (second compound 0.316 µM, first compound 0.000316 µM): 111%; viability, T/C (second compound 0.316 µM, first compound 0.001 µM): 106%; viability, T/C (second compound 1 µM, first compound 0.000316 µM): 108%; viability, T/C (second compound 1 µM, first compound 0.001 µM): 106%; viability, T/C (second compound 3.16 µM, first compound 0.000316 µM): 108%; viability, T/C (second compound 3.16 µM, first compound 0.001 µM): 109%; viability, T/C (second compound 10 µM, first compound 0.000316 µM): 103%; viability, T/C (second compound 10 µM, first compound 0.001 µM): 107%; viability, T/C (second compound 10 µM, first compound 0.00316 µM): 87.9%; viability, T/C (second compound 10 µM, first compound 0.01 µM): 77.7%; viability, T/C (second compound 10 µM, first compound 0.0316 µM): 78.6%; viability, T/C (second compound 10 µM, first compound 0.1 µM): 76.7%"
